Measurements as given in US8680253B2 (OliPass Corporation, priority 2008, dated 2014).
{Fam-L(1)L(1)} = N-terminal fluorescein (Fam) label attached through two L(1) linkers; {Fam-L(2)} = N-terminal fluorescein (Fam) label attached through linker L(2); {L(1)} = linker L(1) as defined below the publication's; {Fam} = fluorescein (FAM) label at the N-terminus; {Lys-NH2} = C-terminal lysine amide

Tests used:
complementary DNA = assay: Binding affinity for DNA: Tm between PNA and complementary DNA (UV absorbance at 260 nm); conditions: 4 μM PNA oligomer and 4 μM DNA, aq buffer pH 7.16, 10 mM sodium phosphate, 100 mM NaCl
Protocol: (§1) PNA oligomers of this invention were evaluated for their binding affinity for DNA by measuring Tm values as follows.
(§2) 4 μM PNA oligomer and 4 μM DNA were mixed in aq buffer (pH 7.16, 10 mM sodium phosphate, 100 mM NaCl), and incubated at 90° C. for a few minutes and slowly cooled down to RT. Then the solution was transferred into a 4 ml quartz cuvette and the cuvette was tightly sealed. The cuvette was mounted on an Agilent 8453 UV/Visible spectrophotometer and absorbance changes at 260 nm were recorded with increasing the temperature of the cuvette by either 0.5 or 1.0° C. per minute. From the absorbance vs temperature curve, the temperature showing the largest increase rate in absorbance was read out as the melting temperature Tm between PNA and DNA. DNAs for Tm measurement were purchased either from Bioneer, Inc. (www.bioneer.com, Daejon, South Korea) or from Ahram Biosystems (www.ahrambio.com, Seoul, South Korea), and used without further purification.
(§3) FIG. 3 provides graphs of absorbance changes with temperature for Oligo 17 against complementary or mismatch DNA. For sequences of the mismatch DNAs against Oligo 17, refer to Table 2. In FIG. 3, there is a transition temperature in each curve, which was read out as the Tm value for the curve.
(§4) Tm values are provided in Table 2 for PNA oligomers of this invention. These Tm values are presented for illustrative purposes only and should not be interpreted as a restriction to this invention.

mismatch DNA = assay: Binding affinity for DNA: Tm between PNA and mismatch DNA (UV absorbance at 260 nm); conditions: for decreases in Tm with single base mismatches: single base mismatch versus complementary DNA
Protocol: as §1, §2, §3, §4

apoB-100 = conditions: a certain population of atherosclerosis patients; cited from earlier work
HeLa cells = assay: Cell penetration of fluorescein-tagged PNA oligomers, confocal fluorescence microscopy; assay type: cell-based, human
Protocol: (§5) In order to evaluate the cell penetration ability of PNA oligomers of this invention, cancer cells of human origin were treated with PNA oligomers covalently tagged with fluorescein. The applied method is provided in brief as follows.
(§6) To each cover glass (autoclaved) placed in each well of a 24-well plate, were seeded 20,000˜100,000 cells depending on the growth rate of the cell line used, and the cells were cultured at 37° C. and 5% CO2 for 16 to 24 h. Then the medium was replaced with 500 μl fresh Opti-MEM medium (with or without 1% FBS), to which was added an aliquot of aq stock solution of a PNA oligomer covalently tagged with fluorescein. After cells were cultured for a designated interval, the cells were washed with PBS, and fixed by incubating in 3.7% or 4% paraformaldehyde. The cells were thoroughly washed several times with PBS or PBS containing 0.1% Tween-20. Then the cover glass was mounted onto a slide glass using a drop of mounting solution and sealed with nail polish for confocal fluorescence microscopy. Fluorescence images were taken either on a Zeiss LSM 510 confocal microscope (Germany) at 63× objective or on a Nikon C1Si confocal microscope at 40× objective.

JAR cells = assay: as above; assay type: cell-based, human; conditions: 2 μM, 24 h, without FBS, 40× objective
Protocol: as §5, §6

A549 cells = assay: as above; assay type: cell-based, human; conditions: 2 μM, 24 h, without FBS, 40× objective
Protocol: as §5, §6

MCF-7 cells = assay: as above; assay type: cell-based, human; conditions: 2.5 μM, 0.5 and 1 h, without FBS, 63× objective
Protocol: as §5, §6

mdm2 = assay: Antisense example: inhibition of ribosomal synthesis of mdm2 in JAR cells, western blotting; assay type: cell-based, human; conditions: 15 h
Protocol: The following antisense example is presented for illustrative purposes only and should not be interpreted as a restriction to the present invention.
JAR cells (ATCC catalog #HTB-144) were grown in RPMI-1640 medium supplemented with 10% FBS and 1% penicillin-streptomycin at 37° C. and 5% CO2. Cells were then seeded into each well of a 12-well plate containing 1 ml of the same medium, and treated with an aliquot of an aqueous stock solution of Oligo 9 or […] of a designated concentration. Then the cells were incubated at 37° C. and 5% CO2 for 15 h.
The cells in each well were washed with cold PBS and treated with 80 μl RIPA buffer containing 1% protease inhibitors cocktail, and the plate was incubated at 4° C. and agitated slowly for 15 min. The content of each well was scraped out into a microtube. The microtube was incubated in ice for 10 min and centrifuged at 10,000 g. The resulting supernatant was collected and subjected to protein quantification by Bradford assay and western blot analysis. For electrophoresis, 20 μg of protein was loaded onto each lane of the gel in a minigel apparatus, separated and transferred onto a PVDF membrane (0.45μ, Millipore). The primary mdm2 antibody used for western blotting was SC-965 (Santa Cruz Biotechnology).
FIG. 9 provides western blotting results for JAR cells treated with 5 μM or 10 μM Oligo 9, 5 μM or 10 μM Oligo 10, cotreatment with the oligomers at 5 μM or 10 μM each, and blank (no oligomer treatment).

[1] = 5 μM, 1, 2, 3 and 24 h, without FBS, 63× objective
[2] = 2 μM, 24 h, without FBS, 40× objective
[3] = 2 μM, 12 h, without FBS, 40× objective
[4] = 1 μM, 6 or 24 h, with 1% FBS, 40× objective

TG(5)G-C(1O2)AA-C(1O2)TG-A(5)T-Lys-NH2 (TGGCAACTGAT; modified PNA, C-terminal Lys-NH2, chemistry not fully specified) [Oligo 20, modified PNA oligomer]
Tm between PNA and complementary DNA (complementary DNA): 84 °C
Tm between PNA and mismatch DNA (mismatch DNA; mismatch (G → A), DNA ATC-AAT-TGC-CA): 65 °C
Tm between PNA and mismatch DNA (mismatch DNA; mismatch (G → T), DNA ATC-ATT-TGC-CA): 62 °C
decreases in Tm with single base mismatches (mismatch DNA): 19˜22 °C

Mipomersen
clinical activity (apoB-100): due clinical activity

CA(5)T-A(5)GT-A(5)TA-A(5)GT-Lys-NH2 (CATAGTATAAGT; modified PNA, C-terminal Lys-NH2, chemistry not fully specified) [Oligo 17, modified PNA oligomer]
Tm between PNA and complementary DNA (complementary DNA): 72 °C
Tm between PNA and mismatch DNA (mismatch DNA; mismatch (T → A), DNA ACT-TAA-ACT-ATG): 59 °C
Tm between PNA and mismatch DNA (mismatch DNA; mismatch (T → C), DNA ACT-TAC-ACT-ATG): 61 °C
Tm between PNA and mismatch DNA (mismatch DNA; mismatch (T → G), DNA ACT-TAG-ACT-ATG): 58 °C
decreases in Tm with single base mismatches (mismatch DNA): 11˜14 °C

Fam-L(1)L(1)-TGC-TAC-TAC-TG-Lys-NH2 (TGCTACTACTG; all peptide nucleic acid (PNA), 5' {Fam}-{L(1)}-{L(1)}, 3' {Lys-NH2}) [Oligo 2, fluorescein-tagged 'unmodified' PNA oligomer, reference compound]
cell penetration, fluorescence intensity (HeLa cells; [1]): fluorescence intensity is faint

Fam-L(2)-TT-C(1O2)AT-A(5)GT-A(5)TA-AG(5)T-Lys-NH2 (TTCATAGTATAAGT; Fam-L(2) label, modified PNA, Lys-NH2, chemistry not fully specified) [Oligo 22, fluorescein-tagged modified PNA oligomer]
cell penetration, fluorescence intensity (JAR cells): good cell penetration
cell penetration, fluorescence intensity (HeLa cells; [2]): good cell penetration
cell penetration, fluorescence intensity (A549 cells): good cell penetration

Fam-L(2)-TGG-CAA-CTG-AT-Lys-NH2 (TGGCAACTGAT; all peptide nucleic acid (PNA), 5' {Fam-L(2)}, 3' {Lys-NH2}) [Oligo 28, fluorescein-tagged 'unmodified' PNA oligomer, reference compound]
cell penetration, fluorescence intensity (JAR cells): no significant fluorescence intensity
cell penetration, fluorescence intensity (HeLa cells; [3]): no significant fluorescence intensity
cell penetration, fluorescence intensity (A549 cells): no significant fluorescence intensity

Fam-L(1)L(1)-TGC(1O3)-TAC(1O3)-TAC(1O3)-TG-Lys-NH2 (TGCTACTACTG; Fam-L(1)L(1) N-term, Lys-NH2, modified PNA, chemistry not fully specified) [Oligo 1, fluorescein-tagged modified PNA oligomer]
cell penetration, fluorescence intensity (HeLa cells; [4]): fluorescence intensity is faint even at 24 h
cell penetration, fluorescence intensity (HeLa cells; [1]): fluorescence intensity is clear and becomes intense over 24 h

Fam-L(1)L(1)-TCT-CCC-AGC-GTG-CGC-CAT-Lys-NH2 (TCTCCCAGCGTGCGCCAT; all peptide nucleic acid (PNA), 5' {Fam-L(1)L(1)}, 3' {Lys-NH2}) [Oligo 7, fluorescein-tagged 'unmodified' PNA oligomer, reference compound]
cell penetration, fluorescence intensity (MCF-7 cells): fluorescence intensity is faint

GC(1O2)A-C(1O2)AT-TTG-C(1O2)CT-NH2 (GCACATTTGCCT; chemistry not fully specified) [Oligo 10, modified PNA oligomer]
inhibition of ribosomal synthesis of mdm2 (mdm2; 5 μM): significantly inhibited
inhibition of ribosomal synthesis of mdm2 (mdm2; 10 μM): significantly inhibited

Fam-L(2)-TG(5)G-C(1O2)AA-C(1O2)TG-A(5)T-Lys-NH2 (TGGCAACTGAT; Fam-L(2) label, modified PNA, Lys-NH2, chemistry not fully specified) [Oligo 21, fluorescein-tagged modified PNA oligomer]
cell penetration, fluorescence intensity (JAR cells): fluorescence intensity is strong
cell penetration, fluorescence intensity (HeLa cells; [3]): fluorescence intensity is apparent
cell penetration, fluorescence intensity (HeLa cells; [2]): significantly stronger than that in FIG. 7(e)
cell penetration, fluorescence intensity (A549 cells): fluorescence intensity is strong

GC(2O2)A-C(2O2)AT-TTG-C(2O2)CT-NH2 (GCACATTTGCCT; chemistry not fully specified) [Oligo 9]
inhibition of ribosomal synthesis of mdm2 (mdm2; 5 μM): significantly inhibited
inhibition of ribosomal synthesis of mdm2 (mdm2; 10 μM): significantly inhibited

Fam-L(1)L(1)-TC(1O3)T-CC(1O3)C-AGC(1O3)-GTG-C(1O3)GC-C(1O3)AT-Lys-NH2 (TCTCCCAGCGTGCGCCAT; Fam-L(1)L(1) label, modified PNA, Lys-NH2, chemistry not fully specified) [Oligo 6, fluorescein-tagged modified PNA oligomer]
cell penetration, fluorescence intensity (MCF-7 cells): fluorescence intensity is clear and becomes intense over 1 h
cell penetration, fluorescence intensity (HeLa cells; [4]): fluorescence intensity is clear and becomes intense over 24 h
